# From patent US20240051957A1, “CRYSTALLINE FORM OF HETEROCYCLIC COMPOUND AS PROTEIN KINASE INHIBITOR” (HK INNO.N CORPORATION, priority 2021, published 2024)
# Key:
# [1] = Physical stability evaluation under stress conditions (XRPD before/after); format: physicochemical; conditions: stored at 60° C.±2° C./80% RH±5% for two days, packaged ((LPDE+N2)+silica gel 1 g+LDPE)+Al-Bag
# Experimental: 1. XRPD Analysis A plate for obtaining an XRPD pattern was mounted on a Bruker General Area Detector Diffraction System (GADDS) equipped with a VANTEC-500 gas domain detector calibrated for intensity and geometric changes. Calibration of measurement accuracy (peak position) was performed using NIST SRM1976 standard (Corundum). Data collection was performed at room temperature using monochromatic CuKα radiation in a diffraction angle (2θ) region of 1.5° to 41.5°, the most distinct part of the XRPD pattern. The diffraction pattern of each well was collected at two 2θ ranges (1.5°≤2θ≤21.5° for a first frame and 9.5°≤2θ≤41.5° for a second frame) with an exposure time of 90 seconds for each frame. No background subtraction or curve smoothing was applied to the XRPD pattern. The carrier material used in the XRPD analysis was transparent to X-rays.
# 4. Experiment on Physical Stability Evaluation
# Samples were packaged in the form of ((LPDE+N2)+silica gel 1 g+LDPE)+Al-Bag, and stored under stress conditions (60° C.±2° C./80% RH±5%) for two days before evaluation.
# [2] = TGA/SDTA and TGMS analysis; format: physicochemical; conditions: heating 25° C. to 300° C. at 10° C./min
# Experimental: 3. TGA/SDTA and TGMS Analysis
# A mass loss caused by solvent or a moisture loss from crystals was determined by thermogravimetric analysis/simultaneous differential thermal analysis (TGA/SDTA). A weight versus temperature curve was generated by monitoring the weight of samples during heating in a TGA/SDTA851e apparatus (product name, Mettler-Toledo GmbH, Switzerland). TGA/SDTA851e was calibrated with indium and aluminum samples. The sample was placed in a 100 μL aluminum crucible and sealed, and then a pin-hole was drilled therein. The crucible was heated from 25° C. to 300° C. in TGA at a heating rate of 10° C./min. Dry N2 gas was used for purging. The gas coming out of the TGA sample was analyzed by Omnistar GSD 301 T2 (product name, Pfeiffer Vacuum GmbH, Germany), which was a quadrupole mass spectrometer for analyzing a mass in the range of 0-200 amu.
smiles,measurement,setting,value
"C[C@@H]1CN(C(=O)CC#N)CC=C1c1cc(NC(=O)C2CC2)nc2[nH]ccc12 [Example 1, (S)-N-(4-(1-(2-cyanoacetyl)-3-methyl-1,2,3,6-tetrahydropyridin-4-yl)-1H-pyrrolo[2,3-b]pyridin-6-yl)cyclopropanecarboxamide]",change in the XPRD pattern before/after the stress conditions (physical stability),[1],substantially no change in the XPRD pattern
"C[C@@H]1CN(C(=O)CC#N)CC=C1c1cc(NC(=O)C2CC2)nc2[nH]ccc12 [(S)-N-(4-(1-(2-cyanoacetyl)-3-methyl-1,2,3,6-tetrahydropyridin-4-yl)-1H-pyrrolo[2,3-b]pyridin-6-yl)cyclopropanecarboxamide]",start of thermal decomposition,[2]; TGA,about 260 °C
same,mass reduction rate (thermogravimetric analysis),[2]; at 150° C.,1.6%
